# Key:
# [1] = tested on: carotid artery shear stress model; test: Carotid artery shear stress model, amount of thrombus; assay type: in vivo, Sprague-Dawley rats; details: rat; for Amount of thrombus (mg, Mean ± SEM): 25 mg/kg oral, twice a day for 3 days after operation; for shear stress-induced thrombogenesis compared with the control group: oral
# Method: Vehicle (0.5% methylcellulose), clopidogrel (8 mg/kg), aspirin (50 mg/kg) or a candidate substance was orally administered to male Sprague-Dawley rats (250 to 300 g). 2 hours after administration, the rats were anesthetized by ketamine/rompun (ketamine/xylazine) cocktail 0.1 ml/100 g. Except for the normal control group, the right cervical skin of the experimental animals was incised to expose the common carotid artery. A surgical tube with a length of 1 mm and an inside diameter of 0.58 mm was inserted into the exposed carotid artery and tied with a single thread. The exposed site and the operation site were treated with an anti-adhesion agent, and then sutured for the animals to recover. After the surgery, vehicle, clopidogrel, aspirin or a candidate substance was orally administered to the rats twice a day for 3 days. On the fourth day, 2 hours after the final administration, urethane (100 mg/300 μl/100 g) was administered intraperitoneally to the rats to induce anesthesia, and the operation site was opened to separate a total of 1 cm of the blood vessel, 5 mm above and 5 mm below the surgical tube. The separated blood vessel was perfused with 0.2 ml of 0.9% saline at 0.3 ml/min to remove the remaining blood, and then maintained in 1 ml of protein lysis buffer (NaOH 2 g, Na2CO3 0.1 g in 500 ml D.W). After collected, the blood vessel thrombus was double-boiled in boiling water together with the protein lysis buffer. 200 μl of the reaction solution (10 ml bicinchoninic acid solution+200 μl 4% aqueous solution of copper sulfate) was added to 10 μl of the heated thrombus, and the mixture was reacted at 37° C. for 30 minutes and quantified with an ELISA reader (562 nm).
# [2] = tested on: collagen-induced platelet aggregation, Human PRP; test: Collagen-induced platelet aggregation in human PRP (lumi-aggregometer); assay type: cell-based; details: collagen 2-5 μg/ml
# Method: (§1) To investigate whether the candidate substance has inhibition selectivity for shear-stress-induced platelet aggregation, which is by a physical stimulus, […] experiment was conducted by activating platelets with physiological agonists—i.e., thrombin, collagen and ADP—to study the inhibitory effect of the candidate substance.
# (§2) Human PRP (598.8 μl) was treated with 1.2 μl of the candidate substance per concentration (25, 100, 250 μM) and reacted at 37° C. for 3 minutes using a thermomixer. Then, PRP (495 μl) was put in the aggregometer cuvette and preincubated for 1 minute, followed by treatment with platelet aggregation-inducing reagent, thrombin (0.6-0.8 U/ml), collagen (2-5 μg/ml), or ADP (adenosine diphosphate, 15-20 μM) at the minimum concentration causing maximum aggregation. The degree of aggregation of the platelets was measured by a turbidity change using a lumi-aggregometer (Chrono-Log Co., USA). The turbidity of the PRP was considered as 0%, and the turbidity of the PPP was considered as 100%. During the measurement, the reaction mixture was continuously stirred at 1,000 rpm with a silicone-coated magnetic stir bar.
# Sprague-Dawley rats = test: Bleeding side effect (tail bleeding time) after single oral administration; assay type: in vivo; details: rat, tail cut 1 hour after administration
# Method: Male Sprague-Dawley rats (250 to 300 g) were fasted overnight and then were orally administered with the candidate substances at each concentration. After 1 hour, the rats were anesthetized by intraperitoneal injection of urethane (1.25 g/kg). The 3 mm portion of the tail tip of the rats was cut and carefully wiped every 30 seconds. Bleeding time was measured in […] until no more blood was drawn, and when the bleeding lasted longer than 30 minutes, the bleeding time was recorded as 30 minutes.
# [3] = tested on: human liver cells (HepG2); test: Cytotoxicity in human liver cells HepG2 (WST-1); assay type: cell-based; details: HepG2, 250 μM, 18 hours
# Method: 5-3. Evaluation of Cytotoxicity of Candidate Substances Using Human Liver Cells
# Experiments were conducted to evaluate cytotoxicity in human liver cells (HepG2). HepG2 cells, which are human liver carcinoma cell lines, were cultured in DMEM (Dulbecco's minimum essential medium) supplemented with 10% FBS (fetal bovine serum) and 1% Penicillin/Streptomycin at 37° C. and 5% CO2. The cells were cultured in a 48 well plate at 4×10^4 cells/well for 24 hours and then used in the experiments. The HepG2 cells were treated with the candidate substances (250 μM) for 18 hours, and then the medium was removed and WST-1 was added, followed by shading for 3 hours for reaction. After 3 hours, the supernatant was taken and absorbance was measured at 450 nm. Cell viability was calculated by comparing the absorbance measured after adding WST-1 to HepG2 cells not treated with the candidate substances. Acetaminophen (40 mM) was used as a control.
# [4] = tested on: thrombin-induced platelet aggregation, Human PRP; test: Thrombin-induced platelet aggregation in human PRP (lumi-aggregometer); assay type: cell-based; details: thrombin 0.6-0.8 U/ml;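 note: aggregation recorded for 5 min after thrombin addition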
# Method: as §1, §2
# ICR mice = test: 2-week repeat-dose toxicity study; assay type: in vivo; details: oral 100, 300 and 1000 mg/kg once a day for 2 weeks
# Method: (§3) After oral administration of vehicle (0.5% methylcellulose) or the candidate substances at low dose, medium dose, and high dose (100, 300, 1000 mg/kg) to ICR mice (female, male, 18 to 26 g) once a day for 2 weeks, the NOAEL values of the candidate substances were calculated by observing and recording mortality, body weight change, clinical observations, food and drinking water consumption, gross necropsy findings, histopathological evaluation of abnormal organ, and organ weights.
# [5] = 2-week repeat-dose toxicity study; assay type: in vivo; details: both sexes, mouse, in vivo; ICR mice, oral 100, 300, 1000 mg/kg once a day for 2 weeks; read-out: NOAEL (No observed adverse effect level)
# Method: as §3
# ICR mouse = test: Bleeding side effect by repeated administration (tail bleeding time); details: 50 mg/kg oral once daily for 7 days
# Method: One hour after the last administration, the mice were anesthetized by breathing, and the 4 mm portion from the tail tip of the mice was cut. Then, the tail tip of the mice was immersed in a transparent 15-ml tube containing the pre-prepared 37° C. saline. The time when blood was not spread any more and the bleeding stopped was measured.
SMILES,"Amount of thrombus (mg, Mean ± SEM) [1] [mg]",shear stress-induced thrombogenesis compared with the control group [1],"Degree of platelet aggregation (%, Mean ± SEM) ([2]; 25 μM) [%]","Degree of platelet aggregation (%, Mean ± SEM) ([2]; 100 μM) [%]","Degree of platelet aggregation (%, Mean ± SEM) ([2]; 250 μM) [%]",Bleeding time (Sprague-Dawley rats; 25 μM (so in the source)) [min],Bleeding time (Sprague-Dawley rats; 100 μM (so in the source)) [min],Cell vaibility (%) [3] [%],"Degree of platelet aggregation (%, Mean ± SEM) ([4]; 25 μM) [%]","Degree of platelet aggregation (%, Mean ± SEM) ([4]; 100 μM) [%]","Degree of platelet aggregation (%, Mean ± SEM) ([4]; 250 μM) [%]","findings in body weight change, clinical observations, food and drinking water consumption, gross necropsy findings, and organ weights (ICR mice)",mortality (ICR mice),NOAEL at 2 weeks [5] [mg/kg],Bleeding time (ICR mouse) [min]
"O=C(c1ccc(O)c(O)c1)N1CCc2sccc2C1 [Example 1, (6,7-Dihydrothieno[3,2-c]pyridin-5(4H)-yl)(3,4-dihydroxyphenyl)methanone]",0.065 ± 0.005,"significantly, remarkably inhibited",84.3 ± 3.5,80.7 ± 10.2,84.3 ± 3.8,6.0 ± 0.9,6.5 ± 0.9,91.7 ± 2.0,88.0 ± 2.1,88.7 ± 6.1,78.7 ± 1.8,,,,
"COc1cc(C(=O)N2CCc3sccc3C2)ccc1O [Example 12, (6,7-Dihydrothieno[3,2-c]pyridin-5(4H)-yl)(4-hydroxy-3-methoxyphenyl)methanone]",0.069 ± 0.007,"significantly, remarkably inhibited",83.0 ± 4.0,80.0 ± 2.0,87.5 ± 3.5,6.3 ± 0.6,6.5 ± 0.3,89.0 ± 2.3,99.5 ± 7.5,95.0 ± 12.0,88.5 ± 4.5,,,,
"CCc1occc(=O)c1OC(=O)c1ccc(O)c(OC)c1 [Example 13, 2-Ethyl-4-oxo-4H-pyran-3-yl 4-hydroxy-3-methoxybenzoate]",0.064 ± 0.006,"significantly, remarkably inhibited",90.0 ± 3.0,79.5 ± 0.5,85.5 ± 3.5,6.5 ± 0.6,7.2 ± 0.3,98.3 ± 5.5,92.5 ± 5.5,95.0 ± 12.0,88.5 ± 4.5,no abnormal findings were observed,no dead animals were observed,> 1000,1.6 ± 0.4
"COc1ccc(NC(=O)c2ccc(O)c(OC)c2)c([N+](=O)[O-])c1 [Example 15, 4-Hydroxy-3-methoxy-N-(4-methoxy-2-nitrophenyl)benzamide]",0.070 ± 0.006,"significantly, remarkably inhibited",86.0 ± 0.0,84.5 ± 4.5,83.5 ± 3.5,7.3 ± 0.7,6.2 ± 0.6,89.7 ± 2.3,95.5 ± 3.5,100.5 ± 4.5,98.0 ± 3.0,,,,
"O=C(c1cc(O)ccc1O)N1CCc2sccc2C1 [Example 20, (6,7-Dihydrothieno[3,2-c]pyridin-5(4H)-yl)(2,5-dihydroxyphenyl)methanone]",0.068 ± 0.005,"significantly, remarkably inhibited",82.3 ± 5.8,81.3 ± 3.5,87.7 ± 2.0,6.7 ± 0.6,7.7 ± 0.4,87.7 ± 2.6,84.0 ± 3.2,82.3 ± 3.7,82.0 ± 15.0,,,,
"O=C(c1cc(O)ccc1O)N1CCC(c2noc3ccc(F)cc23)CC1 [Example 23, (2,5-Dihydroxyphenyl)(4-(5-fluorobenzo[d]isoxazol-3-yl)piperidin-1-yl)methanone]",0.071 ± 0.006,"significantly, remarkably inhibited",82.0 ± 5.0,84.5 ± 4.5,83.5 ± 2.5,,,82.7 ± 5.5,96.0 ± 4.0,88.5 ± 6.5,93.5 ± 1.5,,,,
